Laboratory results reported in PubChem BioAssay AID1963982 (Molecular Pharmacology Branch, DTP, NCI, 2024).

Test system: 313798-341-R-J2-PDC spheroids, viability
Assay: Anticancer human tumor 313798-341-R-J2-PDC patient-derived cervical squamous cell carcinoma cell line growth inhibition [PI3K]
Conditions: spheroids with HUVEC and MSC; for IC50: curve of first compound; for viability, T/C: stronger effect = lower value
Summary of the method: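 Complex 3D spheroids (cancer cells + endothelial HUVEC + mesenchymal stem cells); drug pairs of targeted agent x inavolisib/alpelisib/duvelisib/copanlisib; half-log series from ~Cmax, max 10 microM if Cmax unknown; endpoint viability.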

[1] = second compound 0.00316 µM, first compound 0.0316 µM
[2] = second compound 0.00316 µM, first compound 0.1 µM
[3] = second compound 0.00316 µM, first compound 0.316 µM
[4] = second compound 0.00316 µM, first compound 1 µM
[5] = second compound 0.00316 µM, first compound 3.16 µM
[6] = second compound 0.00316 µM, first compound 10 µM
[7] = second compound 0.01 µM, first compound 0.0316 µM
[8] = second compound 0.01 µM, first compound 0.1 µM
[9] = second compound 0.01 µM, first compound 0.316 µM
[10] = second compound 0.01 µM, first compound 1 µM
[11] = second compound 0.01 µM, first compound 3.16 µM
[12] = second compound 0.01 µM, first compound 10 µM
[13] = second compound 0.0316 µM, first compound 0.0316 µM
[14] = second compound 0.0316 µM, first compound 0.1 µM
[15] = second compound 0.0316 µM, first compound 0.316 µM
[16] = second compound 0.0316 µM, first compound 1 µM
[17] = second compound 0.0316 µM, first compound 3.16 µM
[18] = second compound 0.0316 µM, first compound 10 µM
[19] = second compound 0.1 µM, first compound 0.0316 µM
[20] = second compound 0.1 µM, first compound 0.1 µM
[21] = second compound 0.1 µM, first compound 0.316 µM
[22] = second compound 0.1 µM, first compound 1 µM
[23] = second compound 0.1 µM, first compound 3.16 µM
[24] = second compound 0.1 µM, first compound 10 µM
[25] = second compound 0.316 µM, first compound 0.0316 µM
[26] = second compound 0.316 µM, first compound 0.1 µM
[27] = second compound 0.316 µM, first compound 0.316 µM
[28] = second compound 0.316 µM, first compound 1 µM
[29] = second compound 0.316 µM, first compound 3.16 µM
[30] = second compound 0.316 µM, first compound 10 µM
[31] = second compound 1 µM, first compound 0.0316 µM
[32] = second compound 1 µM, first compound 0.1 µM
[33] = second compound 1 µM, first compound 0.316 µM
[34] = second compound 1 µM, first compound 1 µM
[35] = second compound 1 µM, first compound 3.16 µM
[36] = second compound 1 µM, first compound 10 µM
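Further: spheroids exposed to compounds for seven days.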
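Wherever viability, T/C is given: 100% = DMSO vehicle control viability.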

CC(C)NCC(C(=O)N1CCN(c2ncnc3c2C(C)CC3O)CC1)c1ccc(Cl)cc1 (stereo unspecified) + COc1c(OCCCN2CCOCC2)ccc2c3n(c(=NC(=O)c4cnc(N)nc4)nc12)CCN3
IC50 (second compound 0.00316 µM): 2420 nM
IC50 (second compound 0.01 µM): 1210 nM
IC50 (second compound 0.0316 µM): 1620 nM
IC50 (second compound 0.1 µM): < 31.6 nM
IC50 (second compound 0.316 µM): < 31.6 nM
IC50 (second compound 1 µM): < 31.6 nM
viability, T/C [1]: 97.3%
viability, T/C [2]: 99%
viability, T/C [3]: 83%
viability, T/C [4]: 64.3%
viability, T/C [5]: 46.9%
viability, T/C [6]: 33%
viability, T/C [7]: 85.9%
viability, T/C [8]: 97.1%
viability, T/C [9]: 81.1%
viability, T/C [10]: 52%
viability, T/C [11]: 39.2%
viability, T/C [12]: 29.8%
viability, T/C [13]: 74.8%
viability, T/C [14]: 73.6%
viability, T/C [15]: 59.9%
viability, T/C [16]: 63.2%
viability, T/C [17]: 33%
viability, T/C [18]: 26.1%
viability, T/C [19]: 42.6%
viability, T/C [20]: 38.6%
viability, T/C [21]: 36.9%
viability, T/C [22]: 34%
viability, T/C [23]: 23.9%
viability, T/C [24]: 18.6%
viability, T/C [25]: 15.2%
viability, T/C [26]: 18.4%
viability, T/C [27]: 15.9%
viability, T/C [28]: 17.6%
viability, T/C [29]: 16.3%
viability, T/C [30]: 8.87%
viability, T/C [31]: 10.8%
viability, T/C [32]: 11.6%
viability, T/C [33]: 9.87%
viability, T/C [34]: 13.1%
viability, T/C [35]: 10.6%
viability, T/C [36]: 5.77%

CCN1CCN(Cc2ccc(Nc3ncc(F)c(-c4cc(F)c5nc(C)n(C(C)C)c5c4)n3)nc2)CC1 + COc1c(OCCCN2CCOCC2)ccc2c3n(c(=NC(=O)c4cnc(N)nc4)nc12)CCN3
IC50 (second compound 0.00316 µM): > 1000 nM
IC50 (second compound 0.01 µM): > 1000 nM
IC50 (second compound 0.0316 µM): > 1000 nM
IC50 (second compound 0.1 µM): < 3.16 nM
IC50 (second compound 0.316 µM): < 3.16 nM
IC50 (second compound 1 µM): < 3.16 nM
viability, T/C (second compound 0.00316 µM, first compound 0.00316 µM): 99.7%
viability, T/C (second compound 0.00316 µM, first compound 0.01 µM): 102%
viability, T/C [1]: 117%
viability, T/C [2]: 111%
viability, T/C [3]: 119%
viability, T/C [4]: 105%
viability, T/C (second compound 0.01 µM, first compound 0.00316 µM): 98.6%
viability, T/C (second compound 0.01 µM, first compound 0.01 µM): 91%
viability, T/C [7]: 99%
viability, T/C [8]: 125%
viability, T/C [9]: 113%
viability, T/C [10]: 102%
viability, T/C (second compound 0.0316 µM, first compound 0.00316 µM): 83.7%
viability, T/C (second compound 0.0316 µM, first compound 0.01 µM): 86.6%
viability, T/C [13]: 77.3%
viability, T/C [14]: 80.7%
viability, T/C [15]: 90%
viability, T/C [16]: 80%
viability, T/C (second compound 0.1 µM, first compound 0.00316 µM): 43.1%
viability, T/C (second compound 0.1 µM, first compound 0.01 µM): 44%
viability, T/C [19]: 43.4%
viability, T/C [20]: 36.6%
viability, T/C [21]: 41.9%
viability, T/C [22]: 45.9%
viability, T/C (second compound 0.316 µM, first compound 0.00316 µM): 13.6%
viability, T/C (second compound 0.316 µM, first compound 0.01 µM): 15.5%
viability, T/C [25]: 14.5%
viability, T/C [26]: 16.4%
viability, T/C [27]: 19.8%
viability, T/C [28]: 30%
viability, T/C (second compound 1 µM, first compound 0.00316 µM): 11.4%
viability, T/C (second compound 1 µM, first compound 0.01 µM): 14.3%
viability, T/C [31]: 13.9%
viability, T/C [32]: 11.7%
viability, T/C [33]: 18.3%
viability, T/C [34]: 27.4%

Cn1ncc(Cl)c1-c1cc(C(=O)NC(CN)Cc2cccc(F)c2)sc1Cl (stereo unspecified) + COc1c(OCCCN2CCOCC2)ccc2c3n(c(=NC(=O)c4cnc(N)nc4)nc12)CCN3
IC50 (second compound 0.00316 µM): 930 nM
IC50 (second compound 0.01 µM): 678 nM
IC50 (second compound 0.0316 µM): 280 nM
IC50 (second compound 0.1 µM): < 31.6 nM
IC50 (second compound 0.316 µM): < 31.6 nM
IC50 (second compound 1 µM): < 31.6 nM
viability, T/C [1]: 107%
viability, T/C [2]: 84.7%
viability, T/C [3]: 71%
viability, T/C [4]: 46.7%
viability, T/C [5]: 36.6%
viability, T/C [6]: 35.5%
viability, T/C [7]: 100%
viability, T/C [8]: 99%
viability, T/C [9]: 69.2%
viability, T/C [10]: 41.6%
viability, T/C [11]: 30.8%
viability, T/C [12]: 36.8%
viability, T/C [13]: 99.3%
viability, T/C [14]: 61.9%
viability, T/C [15]: 53.7%
viability, T/C [16]: 36.4%
viability, T/C [17]: 25.2%
viability, T/C [18]: 25.5%
viability, T/C [19]: 49.4%
viability, T/C [20]: 43.5%
viability, T/C [21]: 41.4%
viability, T/C [22]: 27.1%
viability, T/C [23]: 20.2%
viability, T/C [24]: 15.4%
viability, T/C [25]: 17.5%
viability, T/C [26]: 18.1%
viability, T/C [27]: 15.2%
viability, T/C [28]: 16.6%
viability, T/C [29]: 13%
viability, T/C [30]: 5.97%
viability, T/C [31]: 12.7%
viability, T/C [32]: 12.4%
viability, T/C [33]: 13.6%
viability, T/C [34]: 12.3%
viability, T/C [35]: 9.74%
viability, T/C [36]: 3.3%
